Measurements reported in US4175081A, “5-Substituted thiadiazole ureas” (priority 1977, dated 1979).

Experiments:
Crabgrass (CG) [1] = test: Pre-emergence herbicide test; assay type: in vivo, Digitaria sanquinalis; conditions: Digitaria sanguinalis, pre-emergence, 336 h; 8 lb/acre; two weeks after treatment
Outline: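 Crabgrass (Digitaria sanquinalis) was surface seeded in 3' plastic pots of potting soil, covered with screened soil, and watered by sub-irrigation in greenhouse trays. Pots were seeded one day before spraying in a hood with a moving belt and fixed nozzle. Plants stayed in the greenhouse on sub-irrigation, and pre-emergence control was rated visually two weeks after treatment.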

Johnson grass (JG) [2] = test: Pre-emergence herbicide test; assay type: in vivo, Sorgum helepense; conditions: Sorghum halepense, 336 h, 8 lb/acre, two weeks after treatment
Outline: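 Visual injury or control rating two weeks post-treatment, after pre-emergence spray of 8 or 4 lbs active per acre (38 gal/acre) onto pots sown the previous day. Greenhouse watering by sub-irrigation only.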

Amaranth pigweed (PW) [3] = test: Pre-emergence herbicide test; assay type: in vivo, Amaranthus retroflexus; conditions: 336 h, 8 lb/acre, two weeks after treatment
Outline: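 Visual injury or control ratings were made at two weeks on pre-emergence pots, sub-irrigated in the greenhouse. Seeds were sown a day before a hood spray delivering 8 lbs/acre (or 4 lbs/acre) of compound in 38 gallons per acre.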

Turnip (TP) [4] = test: Pre-emergence herbicide test; assay type: in vivo, Brassica sp.; conditions: Brassica rapa, pre-emergence, 336 h; 8 lb/acre; two weeks after treatment
Outline: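 In this pre-emergence greenhouse test, turnip was seeded on the surface of potting soil in 3' plastic pots, lightly covered with screened soil, and watered from below. One day later the pots were sprayed in a belt-fed spray hood. Watering continued only by sub-irrigation, and percent control was visually scored two weeks after treatment.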

Cotton (CT) [5] = test: Pre-emergence herbicide test; assay type: in vivo, Gossypium hirsutum var. DPL smooth leaf; conditions: Gossypium hirsutum, 336 h, 8 lb/acre, two weeks after treatment
Outline: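 Visual injury/control ratings were taken at two weeks post-spray. Pots seeded a day earlier received compound pre-emergence at 8 lbs/acre, or 4 lbs/acre, in a 38 gallon/acre spray volume, and were then held in the greenhouse, watered only from below.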

Corn (CN) [6] = test: Pre-emergence herbicide test; assay type: in vivo; conditions: Zea mays, 336 h, 8 lb/acre, two weeks after treatment
Outline: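 Visual injury/control ratings were made 2 weeks post-spray on corn pots seeded (4 seeds, seed-diameter depth) the day before treatment. Application was a belt-hood spray of 38 gal/acre delivering 8 lbs active per acre, with a 4 lbs/acre rate also formulated. Watering was by sub-irrigation throughout.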

Bean (BN) [7] = test: Pre-emergence herbicide test; assay type: in vivo, Phaseolus vulgaris var. Black Valentine; conditions: Phaseolus vulgaris, 336 h, 8 lb/acre, two weeks after treatment
Outline: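 Visual injury/control ratings were taken two weeks post-spray on sub-irrigated Phaseolus vulgaris var. Black Valentine. Pots were sown a day before treatment. Pre-emergence spray delivered 8 lbs actual compound per acre (or 4 lbs/acre) at 38 gallons per acre.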

Crabgrass (CG) [8] = test: Post-emergence herbicide test; assay type: in vivo, Digitaria sanquinalis; conditions: Digitaria sanguinalis, post-emergence, 336 h; 8 lb/acre; two weeks after treatment
Outline: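 Crabgrass (Digitaria sanquinalis) was surface seeded individually in 3' plastic pots of potting soil, covered with screened soil, and watered by sub-irrigation in greenhouse trays. Planting was staggered so seedlings reached the target stage together. Post-emergence sprays were applied in a hood with a removable belt and fixed nozzle, and control was visually rated two weeks after treatment.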

Johnson grass (JG) [9] = test: Post-emergence herbicide test; assay type: in vivo, Sorgum helepense; conditions: Sorghum halepense, 336 h, 8 lb/acre, two weeks after treatment
Outline: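 Visual injury or control scores taken 2 weeks after a post-emergence spray of pot-grown plants. Application was 8 lbs/acre (or 4 lbs/acre) in 38 gal/acre. Plants were held in the greenhouse with sub-irrigation only.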

Barnyard grass (BG) = test: Post-emergence herbicide test; assay type: in vivo; conditions: Echinochloa crus-galli, 336 h, 8 lb/acre, two weeks after treatment
Outline: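 Greenhouse pot-grown barnyard grass seedlings sprayed post-emergence at 8 lbs active compound per acre (some at 4 lbs/acre) in 38 gallons per acre, then sub-irrigated. Injury or control rated visually two weeks after treatment.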

Amaranth pigweed (PW) [10] = test: Post-emergence herbicide test; assay type: in vivo, Amaranthus retroflexus; conditions: 336 h, 8 lb/acre, two weeks after treatment
Outline: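 Visual injury or control ratings were made two weeks after spraying, with greenhouse watering by sub-irrigation only. Treatment was post-emergence, when pigweed seedlings had 1 or 2 true leaves, at 8 lbs active compound per acre (4 lbs/acre formulations also made) in a 38 gallons-per-acre spray volume.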

Turnip (TP) [11] = test: Post-emergence herbicide test; assay type: in vivo, Brassica sp.; conditions: Brassica rapa, post-emergence, 336 h; 8 lb/acre; two weeks after treatment
Outline: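 A greenhouse post-emergence herbicide test on turnip. Seeds were sown on the surface of potting soil in 3' plastic pots, lightly covered with screened soil and watered from below. Planting was timed so seedlings had 1 or 2 true leaves above the cotyledons at spraying, done in a hood with a fixed nozzle. Control or injury was scored by eye after two weeks.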

Cotton (CT) [12] = test: Post-emergence herbicide test; assay type: in vivo, Gossypium hirsutum var. DPL smooth leaf; conditions: Gossypium hirsutum, post-emergence, 336 h; 8 lb/acre; two weeks after treatment
Outline: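 This greenhouse post-emergence test measured how well spray treatments controlled cotton. Seedlings of Gossypium hirsutum var. DPL smooth leaf, with expanded cotyledons and a first true leaf 1' in length, were sprayed with 50 ml formulations in a belt-fed spray hood. They were then returned to the greenhouse and watered only by sub-irrigation. Injury was scored visually as % control after two weeks.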

Corn (CN) [13] = test: Post-emergence herbicide test; assay type: in vivo; conditions: Zea mays, 336 h, 8 lb/acre, two weeks after treatment
Outline: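 Greenhouse seedlings grown in potting soil and sprayed post-emergence at 8 lbs compound/acre (formulations also made for 4 lbs/acre) in 38 gallons/acre spray volume. Watering by sub-irrigation only. Injury or control rated visually two weeks after treatment.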

Bean (BN) [14] = test: Post-emergence herbicide test; assay type: in vivo, Phaseolus vulgaris var. Black Valentine; conditions: Phaseolus vulgaris, post-emergence, 336 h; 8 lb/acre; two weeks after treatment
Outline: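 Bean seedlings (Phaseolus vulgaris var. Black Valentine) were grown in potting soil in 3' pots until the primary leaves expanded. They were then sprayed under a hood with a removable belt and fixed nozzle, using 50 ml formulations. Afterward they were returned to the greenhouse and watered only by sub-irrigation. Percent control was judged visually two weeks after treatment.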

[15] = system: variety of crops and weed species; test: Pre- and post-emergence herbicide tests, overall assessment of Tables III-VI; assay type: in vivo; conditions: data of Tables III-VI
Protocol: All crop and weed species were planted individually in 3' plastic pots containing potting soil. Four seeds each of corn, cotton, and snapbeans were seeded to a depth equal to the diameter of the seed. All other species were surface seeded and sprinkled with screened soil in an amount sufficient to cover the seed. Immediately after planting, all pots were watered by sub-irrigation in greenhouse trays. Pots for the pre-emergence phase were seeded one day before treatment.
Compounds were tested at rates of application equivalent to 8 lbs. of actual compound per acre in a spray volume of 38 gallons per acre. Spray hood constants required to deliver the above volume are as follows:
Two weeks after treatment, pre- and post-emergence injury or control was visually rated, and the results were as shown in the following tables. Pre-emergence data are provided in TABLE III and post-emergence data are provided in TABLE IV, for compounds having the formula illustrated in TABLE I. Correspondingly, pre-emergence and post-emergence data, respectively, are set forth in TABLES V AND VI, for compounds having the formula illustrated in TABLE II.

CCc1nnc(NC(=O)N(C)C)s1 [Example 20]
pest or weed control at 8966.8 g/ha (Crabgrass (CG) [1]): 90%
pest or weed control at 8966.8 g/ha (Johnson grass (JG) [2]): 70%
pest or weed control at 8966.8 g/ha (Amaranth pigweed (PW) [3]): 90%
pest or weed control at 8966.8 g/ha (Turnip (TP) [4]): 100%
pest or weed control at 8966.8 g/ha (Cotton (CT) [5]): 30%
pest or weed control at 8966.8 g/ha (Corn (CN) [6]): 30%
pest or weed control at 8966.8 g/ha (Bean (BN) [7]): 10%
pest or weed control at 8966.8 g/ha (Crabgrass (CG) [8]): 20%
pest or weed control at 8966.8 g/ha (Johnson grass (JG) [9]): 20%
pest or weed control at 8966.8 g/ha (Barnyard grass (BG)): 20%
pest or weed control at 8966.8 g/ha (Amaranth pigweed (PW) [10]): 100%
pest or weed control at 8966.8 g/ha (Turnip (TP) [11]): 90%
pest or weed control at 8966.8 g/ha (Cotton (CT) [12]): 80%
pest or weed control at 8966.8 g/ha (Corn (CN) [13]): 30%
pest or weed control at 8966.8 g/ha (Bean (BN) [14]): 50%
herbicidal effectiveness / selectivity, in words [15]: more selective when applied to a certain crop or weed species
